Some test systems named below: RXF 393 renal; HOP-62 NSCLC; ACHN renal; SNB-75 CNS; NCI/ADR-RES ovarian; SF-295 CNS; OVCAR-5 ovarian; MOLT-4 leukemia; OVCAR-3 ovarian; SW-620 colon.
Common to all, as to experiment: DTP human tumour cell line panel, 48 h

SMILES strings stand for the structures.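 1) Cells in 96-well plates. 2) Compound, 48 h, 5 concentrations. 3) Linear interpolation between surrounding doses. 4) Unreached endpoint = highest concentration. GI50 = concentration required for 50% inhibition of growth. TGI marks complete inhibition of growth.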

For `CON=C1C[C@]2(C[C@@H]3C[C@@H](C/C=C(\C)C[C@@H](C)/C=C/C=C4\CO[C@@H]5[C@H](O)C(C)=C[C@@H](C(=O)O3)[C@]45O)O2)O[C@H](/C(C)=C/C(C)C)[C@H]1C`, the GI50 with RXF 393 renal is 16400 nM; with HOP-62 NSCLC, 15.5 µM; in the assay with ACHN renal it was 15.2 µM; in the assay on SNB-75 CNS it was 18.7 µM; in the assay on NCI/ADR-RES ovarian it was 14.4 µM; in the assay with SF-295 CNS, 9.16 µM. Besides, the GI50 was 18.1 µM in the assay with OVCAR-5 ovarian, 3.02 µM in the assay with MOLT-4 leukemia, 4.45 µM with OVCAR-3 ovarian and 11.8 µM in the assay with SW-620 colon. The TGI turned out to be 30.6 µM with RXF 393 renal; 29 µM in the assay with HOP-62 NSCLC; 29.3 µM with ACHN renal; 35.3 µM in the assay with SNB-75 CNS; 29 µM in the assay with NCI/ADR-RES ovarian; 22 µM in the assay on SF-295 CNS. The TGI amounted to 37.4 µM in the assay on OVCAR-5 ovarian, 8.53 µM in the assay on MOLT-4 leukemia, 15.8 µM in the assay with OVCAR-3 ovarian and 25.3 µM with SW-620 colon.
Consider `O=C(Nc1ccc(Oc2ccc(NC(=O)Nc3ccccc3Cl)cc2)cc1)Nc1ccccc1Cl`, for which the GI50 in the assay with RXF 393 renal is 2990 nM; in the assay with HOP-62 NSCLC, 12.4 µM; in the assay with ACHN renal it was above 22.2 µM; in the assay on SNB-75 CNS, 12.2 µM; in the assay with NCI/ADR-RES ovarian it was 10.8 µM; in the assay with SF-295 CNS it was 6.81 µM. Moreover, the GI50 with OVCAR-5 ovarian is 27.6 µM; in the assay on MOLT-4 leukemia, 12.1 µM; in the assay on OVCAR-3 ovarian it was 11.3 µM; in the assay with SW-620 colon, 10.6 µM. Moreover, the TGI was 11.4 µM in the assay on RXF 393 renal; 34.1 µM in the assay with HOP-62 NSCLC; above 100 µM in the assay on ACHN renal; 37.3 µM with SNB-75 CNS; above 63.8 µM in the assay with NCI/ADR-RES ovarian; 33.9 µM with SF-295 CNS. Also, the TGI with OVCAR-5 ovarian was above 100 µM; in the assay on MOLT-4 leukemia it was 32.9 µM; in the assay with OVCAR-3 ovarian, above 55 µM; in the assay on SW-620 colon, above 100 µM.
Turning to `COc1ccc(/C(=C/c2ccc3ccccc3c2)c2nn[nH]n2)cc1OC`, the GI50 in the assay on RXF 393 renal is 2480 nM; in the assay on HOP-62 NSCLC, 2.33 µM; in the assay on ACHN renal it was 11.3 µM; in the assay on SNB-75 CNS, 2.51 µM; in the assay on NCI/ADR-RES ovarian it was 1.03 µM; in the assay with SF-295 CNS, 1.51 µM. Besides, the GI50 is 6.08 µM in the assay with OVCAR-5 ovarian, 4.16 µM in the assay on MOLT-4 leukemia, 1.69 µM in the assay on OVCAR-3 ovarian and 1.36 µM with SW-620 colon. Moreover, the TGI in the assay on RXF 393 renal was 9.07 µM; in the assay with HOP-62 NSCLC, above 100 µM; in the assay with ACHN renal, above 100 µM; in the assay with SNB-75 CNS, above 100 µM; in the assay with NCI/ADR-RES ovarian, above 100 µM; in the assay with SF-295 CNS it was 51.1 µM. The TGI with OVCAR-5 ovarian was above 100 µM; in the assay with MOLT-4 leukemia, above 100 µM; with OVCAR-3 ovarian, 7.87 µM; with SW-620 colon, above 100 µM.
Take `COc1ccc(CN2C(=O)/C(=C\C(=O)c3ccc(OCCN4CCCC4)cc3)c3ccccc32)cc1`: the GI50 with RXF 393 renal was 1950 nM; in the assay on HOP-62 NSCLC, 20.8 µM; in the assay on ACHN renal it was 1.66 µM; in the assay with SNB-75 CNS, 14.2 µM; with NCI/ADR-RES ovarian, 5.71 µM; in the assay on SF-295 CNS, 14.8 µM. Further, the GI50 in the assay on OVCAR-5 ovarian was 1.78 µM; in the assay on MOLT-4 leukemia, 2.91 µM; with OVCAR-3 ovarian it was 1.8 µM. Also, the TGI was 3.66 µM with RXF 393 renal; 43.9 µM with HOP-62 NSCLC; 3.02 µM in the assay with ACHN renal; 30.9 µM with SNB-75 CNS; 47.7 µM in the assay on NCI/ADR-RES ovarian; 36.8 µM in the assay with SF-295 CNS. Also, the TGI was determined as 4.76 µM in the assay with OVCAR-5 ovarian, 7.11 µM in the assay on MOLT-4 leukemia and 3.48 µM in the assay with OVCAR-3 ovarian.
For `Cc1cc2c(C(=O)NCC#N)cccc2n1-c1nc2c(c(NCc3ccccc3)n1)CCCC2`, the GI50 with RXF 393 renal is 225 nM; in the assay on ACHN renal, 0.28 µM; in the assay on SNB-75 CNS, 0.345 µM; with NCI/ADR-RES ovarian it was 0.328 µM; with SF-295 CNS it was 0.191 µM; in the assay on OVCAR-5 ovarian, 0.395 µM. Further, the GI50 with MOLT-4 leukemia is 0.313 µM; in the assay on OVCAR-3 ovarian, 0.245 µM; with SW-620 colon, 0.355 µM. The TGI is 0.541 µM in the assay on RXF 393 renal; 1.24 µM in the assay with ACHN renal; 1.74 µM in the assay on SNB-75 CNS; 3.03 µM in the assay with NCI/ADR-RES ovarian; 0.444 µM in the assay on SF-295 CNS; 1.94 µM in the assay on OVCAR-5 ovarian. For the same compound, the TGI in the assay on MOLT-4 leukemia is 65.6 µM; in the assay on OVCAR-3 ovarian it was 0.62 µM; with SW-620 colon it was 1.29 µM.
For the compound `C=C1C(=O)O[C@@H]2C[C@@H]1CC[C@]1(C)O[C@H]1CC/C(C)=C/CC[C@@]2(C)O`, the GI50 is 25100 nM in the assay on RXF 393 renal; 24.2 µM in the assay on HOP-62 NSCLC; 20.9 µM with NCI/ADR-RES ovarian; 29.7 µM in the assay with SF-295 CNS; 28.6 µM in the assay on OVCAR-5 ovarian; 11.7 µM with MOLT-4 leukemia. Also, the figures for the GI50 in the assay on OVCAR-3 ovarian and with SW-620 colon were 23.1 µM and 15.8 µM, respectively. Further, the total growth inhibition concentration (TGI) in the assay on RXF 393 renal is 55.4 µM; in the assay on HOP-62 NSCLC, 47.7 µM; with NCI/ADR-RES ovarian, 56.3 µM; with SF-295 CNS, 92.5 µM; in the assay with OVCAR-5 ovarian, 96 µM; in the assay on MOLT-4 leukemia, 28.1 µM. Further, the values for the TGI with OVCAR-3 ovarian and with SW-620 colon were 64.1 µM and 33.7 µM, respectively.
With `CC1NC(C(=O)O)Cc2cc(O)c(O)cc21` (stereo not given), the TGI with RXF 393 renal, with HOP-62 NSCLC, with ACHN renal, in the assay on NCI/ADR-RES ovarian, in the assay with SF-295 CNS and in the assay on OVCAR-5 ovarian was above 100 µM each time. In addition, the TGI with MOLT-4 leukemia, in the assay on OVCAR-3 ovarian and in the assay on SW-620 colon was above 100 µM in each case.
As for `CCC1(OC(=O)CNC)C(=O)OCc2c1cc1n(c2=O)Cc2cc3ccccc3nc2-1` (stereo not given), the concentration for total growth inhibition (TGI) with RXF 393 renal was 0.115 µM; in the assay on HOP-62 NSCLC, below 0.0143 µM; in the assay with ACHN renal, 0.0184 µM; with SNB-75 CNS, 0.0842 µM; in the assay with NCI/ADR-RES ovarian, 0.0151 µM; in the assay with OVCAR-5 ovarian, 0.221 µM. The results for the TGI with MOLT-4 leukemia, in the assay with OVCAR-3 ovarian and with SW-620 colon were 0.0631 µM, 0.401 µM and 19.5 µM, respectively.

A word on the GI50: it is the concentration giving 50% growth inhibition. The TGI is the concentration giving total growth inhibition. Higher therefore signals less potent growth arrest.
